Key:
LAD2 cells [1] = experiment: β-hexosaminidase release induced by C48/80 in LAD2 cells; format: cell-based, Human; conditions: for IC50: Homo sapiens, LAD2, read-out: Experimental pIC50 (converted); for antiallergic activity (β-hexosaminidase release inhibition): LAD2 cells, 10 μmol/L
LAD2 cells [2] = experiment: LAD2 cell viability; format: cell-based, Human; conditions: 10 μmol/L
LAD2 cells [3] = experiment: histamine release in vitro induced by C48/80; format: cell-based, Human; conditions: 1 to 10 μmol/L
LAD2 cells [4] = experiment: IL-8 release induced by C48/80; format: cell-based, Human; conditions: LAD2 cells, 1, 5 and 10 μmol/L
mice [5] = experiment: paw swell and Evans blue extravasation induced by C48/80; format: in vivo; conditions: gavage, 1, 5 and 10 mg/kg
mice [6] = experiment: serum histamine release in vivo after C48/80; conditions: mice, 1, 5 and 10 mg/kg
mice [7] = experiment: skin toluidine blue staining; format: in vivo; conditions: 10 mg/kg, C48/80
mice [8] = experiment: body temperature after C48/80; format: in vivo; conditions: 10 mg/kg
C57BL/6 mice = experiment: OVA-induced antigen-induced pulmonary inflammation; format: in vivo; conditions: AIPI mice
MRGPRX2-HEK293 cells = experiment: intracellular Ca2+ mobilization assay; format: cell-based; conditions: MRGPRX2-HEK293 cells, 1, 5, 10 μmol/L
MRGPRX2 = target: T1, MRGPRX2 (Homo sapiens, UniProt Q96LB1); conditions: cited from earlier work
T1 sequence (Q96LB1 1-330): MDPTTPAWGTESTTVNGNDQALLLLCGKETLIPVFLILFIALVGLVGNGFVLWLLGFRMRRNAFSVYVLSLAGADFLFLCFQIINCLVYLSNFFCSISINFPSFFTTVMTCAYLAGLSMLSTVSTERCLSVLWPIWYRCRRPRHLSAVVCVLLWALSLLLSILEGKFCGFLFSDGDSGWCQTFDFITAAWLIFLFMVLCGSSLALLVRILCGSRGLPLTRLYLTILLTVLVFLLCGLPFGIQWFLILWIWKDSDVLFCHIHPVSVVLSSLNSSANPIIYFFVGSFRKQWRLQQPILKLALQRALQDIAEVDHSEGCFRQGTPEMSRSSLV

SMILES: O=C(Nc1ccc(C(F)(F)F)cc1)Nc1cccc(Br)c1 [Compound A-2023, 1-(3-bromophenyl)-3-(4-(trifluoromethyl)phenyl) urea]
- IC50 (LAD2 cells [1]): 1.23 µM
- cytotoxicity on LAD2 cells (LAD2 cells [2]): much higher toxicity

SMILES: O=C(Nc1ccccc1)Nc1ccc(C(F)(F)F)cc1 [Compound A-3023]
- IC50 (LAD2 cells [1]): 8.32 µM
- antiallergic activity (β-hexosaminidase release inhibition) (LAD2 cells [1]; C48/80): much more potent than A-4023
- cytotoxicity on LAD2 cells (LAD2 cells [2]): attenuated cytotoxicity

SMILES: O=C(Nc1ccc(C(F)(F)F)cc1)Nc1cccc([N+](=O)[O-])c1 [Compound B-2023]
- IC50 (LAD2 cells [1]): 0.363 µM

SMILES: O=C(Nc1ccc(C(F)(F)F)cc1)Nc1ccc(S(=O)(=O)O)cc1 [Compound B-6023]
- antiallergic activity (β-hexosaminidase release inhibition) (LAD2 cells [1]; C48/80): inactivity

SMILES: O=C(Nc1ccc([N+](=O)[O-])cc1)Nc1cccc(C(F)(F)F)c1 [Compound B-3023]
- IC50 (LAD2 cells [1]): 0.832 µM

SMILES: O=C(Nc1ccc([N+](=O)[O-])cc1)Nc1ccc(C(F)(F)F)cc1 [Compound B-1023]
- IC50 (LAD2 cells [1]): 0.17 µM
- inhibition of β-hexosaminidase release (LAD2 cells [1]; LAD2 cells, 1, 5 and 10 μmol/L, C48/80): the most potential antiallergic ability
- cytotoxicity on LAD2 cells (LAD2 cells [2]): nontoxic
- histamine release from LAD2 cells induced by C48/80 (LAD2 cells [3]): inhibited the histamine release
- IL-8 release induced by C48/80 (LAD2 cells [4]): reduced the IL-8 release
- hindpaw swelling and Evans blue exudation rates (mice [5]): decreased in a dose-dependent manner
- serum histamine release (mice [6]): reduced in a dose-dependent manner
- local skin mast cell deformation and degranulation (toluidine blue) (mice [7]): reduced mast cell deformation and degranulation
- body temperature drop induced by C48/80 (mice [8]): significantly attenuated the body temperature drop
- Th2 cytokine (IL-5 and IL-13) release in BALF (C57BL/6 mice): obviously inhibited
- airway hyperresponsiveness (AHR) triggered by Mch (C57BL/6 mice): suppressed the AHR
- number of bronchoalveolar lavage fluid (BALF) cells (C57BL/6 mice): inhibited
- lung lesions (HE, PAS, MASSON staining) (C57BL/6 mice; 5 mg/kg oral): exerted anti-AIPI effects
- lung lesions (HE, PAS, MASSON staining) (C57BL/6 mice; 10 mg/kg oral): significantly attenuated the pathological changes, with a better effect than that of Dex
- serum IgE release (C57BL/6 mice; 10 mg/kg oral): only partially weakened IgE release
- C48/80-induced intracellular calcium mobilization (MRGPRX2-HEK293 cells): dose-dependently reduced

SMILES: C[C@H]1O[C@@H](O[C@H]2CC[C@@]3(C)[C@@H](CC[C@]4(C)[C@@H]3C=C[C@]35OC[C@@]6(CCC(C)(C)C[C@H]63)[C@@H](O)C[C@]54C)[C@]2(C)CO)[C@H](O)[C@@H](O[C@@H]2O[C@H](CO)[C@@H](O)[C@H](O)[C@H]2O)[C@H]1O [saikosaponin A]
- IC50 (MRGPRX2): 640 µM

SMILES: O=C(Nc1ccccc1)Nc1cccc(C(F)(F)F)c1 [Compound A-4023]
- cytotoxicity on LAD2 cells (LAD2 cells [2]): attenuated cytotoxicity

SMILES: O=C(Nc1ccccc1)Nc1cc(Br)cc(C(F)(F)F)c1 [Compound A-1023, 1-(3-bromo-5-(trifluoromethyl)phenyl)-3-phenylurea]
- IC50 (LAD2 cells [1]): 7.94 µM

SMILES: O=C(Nc1cccc([N+](=O)[O-])c1)Nc1cccc(C(F)(F)F)c1 [Compound B-4023]
- IC50 (LAD2 cells [1]): 0.288 µM

SMILES: O=C(Nc1ccccc1)Nc1cccc(Br)c1 [Compound A-5023]
- IC50 (LAD2 cells [1]): 21.9 µM
- antiallergic activity (β-hexosaminidase release inhibition) (LAD2 cells [1]; C48/80): no antiallergic activity
- cytotoxicity on LAD2 cells (LAD2 cells [2]): no antiallergic activity or cytotoxicity

SMILES: CC(C)=CCOc1c2occc2cc2ccc(=O)oc12 [imperatorin]
- IC50 (MRGPRX2): 50 µM

SMILES: C[C@@H]1C[C@H]2[C@@H]3CCC4=CC(=O)C=C[C@]4(C)[C@@]3(F)[C@@H](O)C[C@]2(C)[C@@]1(O)C(=O)CO [Dexamethasone, reference compound]
- airway hyperresponsiveness (AHR) triggered by Mch (C57BL/6 mice): suppressed the AHR
- lung lesions (HE, PAS, MASSON staining) (C57BL/6 mice; dose not given): improved lung lesions
- serum IgE release (C57BL/6 mice; dose not given): almost completely inhibited the excessive release of IgE

From publication PMC11873639 (Acta Pharmaceutica Sinica. B, 2024)
